Where two headings read alike, the source gives them in different places.
Tested on: human DMD exon 50 GFP based reporter
Assay: BioMol high throughput screen in Ex50-GFP reporter C2C12 myoblasts, with or without AON6
Format: cell-based, mouse
Settings: for Average Fluorescence (n = 3): average of 3 replicate plates
From the text: Small molecule libraries were screened for exon skipping promoting activity in C2C12 myoblasts expressing a human DMD exon 50 GFP based reporter. […] In the reporter cells, successful skipping of DMD exon 50 creates in-frame GFP expression. Number of cells that were fluorescing was quantified using a high content cell imager in 384 well plate format. Fluorescence was normalized by subtracting the average fluorescence value of the carrier (DMSO) controls. Fluorescence readouts are plotted for the BioMol library screen both with (+AO) and without (−AO) from Source Plate 1 (containing the Orphan Ligand, Ion Channel, Enzyme Inhibitor, and Endocannabanoid libraries, n=300). Each point for the DMSO controls, all compounds, and the Top 5% from Source Plate 1 (n=15) represents the average normalized fluorescence of 6 replicates in the −AO screen and 3 replicates in the +AO screen. […] Individual points for dantrolene are plotted with the bold horizontal line indicating the median. The short horizontal lines interspersed among the data points indicate 1, 2, and 3 standard deviations away from the DMSO treatment mean fluorescence.
In contrast to prior screens aimed at identifying small molecules which impact exon skipping, our screen is unique at least because it relies on robust quantitation of a skipping reporter in the context of a muscle lineage cell in the presence and absence of suboptimal AO. These screens were performed using a mouse muscle cell line (C2C12) expressing a human DMD exon 50 GFP based reporter selected to minimize experimental variation and sensitivity in the context of an automated and quantitative fluorescent scanning system.
AO was added prior to small molecule incubation in an effort to identify molecules that facilitate AO skipping rather than AO delivery. The fluorescence induced by each compound was normalized to a vehicle controls per plate to correct for plate to plate variability. Fluorescence was averaged across replicate plates (n=6 without AO screen, n=3 with AO screen). Compounds were rank ordered based on average intensity of fluorescence and difference between the without AO and with AO screen (FIG. 1 and Table 2).
A stable clone was generated from C2C12 cells transfected with a human exon 50 DMD GFP reporter (ex50GFP) that has been previously described. Ex50GFP reporter myoblasts were seeded into uncoated 384 well plates and were incubated for 4 hours either with or without 300 nM of 2′-O-methyl phosphorothioate AON6 [5′[…] 3′ (SEQ ID NO:1)] targeting the human exon 50 splice donor site. Cells were transfected with AON6 using the FUGENE (Roche) transfection reagent per manufacturer's instructions. Following AON6 incubation, each component of the BioMol library (n=503) was screened at 10 uM concentration with a final concentration of the DMSO carrier being 1%. Forty-eight hours later fluorescence was measured using the MicroXpress high content imager and analyzed using MetaXpress. Immediately preceding imaging, DNA was stained with Hoescht for 30 min. The BioMol screen without AO (−AO) was performed in 6 replicates, and the with AO (+AO) screen was performed in 3 replicates. For the screen analysis raw fluorescence values were normalized to carrier controls present on each plate by subtracting the values. Negative fluorescence values were set to 0. The data from each compound were averaged from all replicates. For secondary screening by 12 or 16 point dose response, Ex50GFP myoblasts or C2C12 cells without the reporter were seeded on uncoated 384 well plates. A sub-optimal dose of AON6 targeting DMD exon 50 was added for 4 hours.

[1] = With AON6 screen, compound 10 uM, 48 h, fluorescence normalized by subtracting DMSO carrier controls
[2] = With AON6 screen, compound 10 uM, 48 h, normalized to DMSO carrier controls
[3] = With AON6 screen, compound 10 uM
[4] = Without AON6 screen, compound 10 uM, 48 h, normalized to DMSO carrier controls
[5] = Without AON6 screen, compound 10 uM, average of 6 replicate plates

Structure (SMILES) | Fluorescence Plate 1 [1] | Fluorescence Plate 2 [2] | Fluorescence Plate 3 [2] | Average Fluorescence (n = 3) [3] | Fluorescence Plate 1 [4] | Fluorescence Plate 2 [4] | Fluorescence Plate 3 [4] | Fluorescence Plate 4 [4] | Fluorescence Plate 5 [4] | Fluorescence Plate 6 [4] | Average Fluorescence (n = 6) [5] | other results
CC(n1cc(C[C@H](N)C(=O)O)c2ccccc21)n1cc(C[C@H](N)C(=O)O)c2ccccc21 | 20.72 | 11.15 | 22.18 | 18.02 | – | – | – | – | – | – | – | –
CC(N/C(=N\C#N)Nc1ccncc1)C(C)(C)C (stereo not drawn) | 15.64 | 27.20 | 11.56 | 18.13 | – | – | – | – | – | – | – | –
Nc1ncnc2c1c(I)cn2[C@@H]1O[C@H](CO)C(O)C1O (stereo partly drawn) [5-IODOTUBERCIDIN] | – | – | – | – | -0.41 | 6.65 | 9.13 | 18.27 | 30.70 | 6.10 | 11.74 | –
O=Cc1c2c(cc3c1=Nc1ccccc1-3)=Nc1ccccc1-2 [6-FORMYLINDOLO [3,2-b] CARBAZOLE] | 30.05 | 30.08 | 32.59 | 30.90 | – | – | – | – | – | – | – | –
N#C/C(=C/c1ccc(O)c(O)c1)C(=O)NCc1ccccc1 [AG-490] | 7.17 | 30.27 | 13.54 | 16.99 | – | – | – | – | – | – | – | –
N#C/C(=C\c1ccc(O)c(O)c1)C(=O)Nc1ccccc1 [AG-494] | 19.38 | 25.36 | 25.25 | 23.33 | 5.92 | 1.23 | 1.65 | 7.58 | 3.54 | 5.26 | 4.20 | –
COc1cc(/C=C(\C#N)C(N)=O)cc(CSc2nc3ccccc3s2)c1O [AG-825] | 17.24 | 23.38 | 11.53 | 17.38 | – | – | – | – | – | – | – | –
CC(C)(C)c1cc(/C=C(\C#N)C(N)=S)cc(C(C)(C)C)c1O [AG-879] | – | – | – | – | 1.23 | 3.24 | 3.46 | 6.94 | 8.93 | 2.06 | 4.31 | –
C[C@@]12C(=O)OC(=O)[C@]1(C)[C@H]1CC[C@@H]2O1 [CANTHARIDIN] | – | – | – | – | 11.40 | −1.04 | 0.63 | 5.55 | 4.34 | 4.45 | 4.22 | –
N=C(NCc1ccc(Cl)c(Cl)c1)NC(=O)c1nc(Cl)c(N)nc1N [DICHLOROBENZAMIL] | – | – | – | – | 22.19 | 15.01 | 13.67 | 4.78 | 7.44 | 6.66 | 11.63 | –
CCCCC/C=C\C/C=C\C/C=C\C/C=C\CCCCCC(=O)NCCc1ccc(O)c(O)c1 [Docosatetra-7Z,10Z,13Z,16Z-enoyl dopamine] | – | – | – | – | – | – | – | – | – | – | – | Average Fluorescence (n = 6): 4.71; Fluorescence Plate 1: −1.65; Fluorescence Plate 2: 5.21; Fluorescence Plate 3: 7.47; Fluorescence Plate 4: 2.30; Fluorescence Plate 5: 9.50; Fluorescence Plate 6: 5.44
NCCNS(=O)(=O)c1cccc2cnccc12 [H-9] | 18.09 | 19.17 | 13.25 | 16.84 | – | – | – | – | – | – | – | –
COc1ccc2c3c([nH]c2c1)C(C)=NCC3.Cl [HARMALINE HCl] | 15.00 | 42.55 | 0.22 | 19.26 | 31.97 | 27.56 | 27.06 | 22.50 | 16.09 | 19.75 | 24.15 | –

Source: patent US10188633B2, “Identification of small molecules that facilitate therapeutic exon skipping” (The Regents of the University of California, priority 2011, dated 2019)
